These results are taken from US7705020B2, “Benzimidazolone carboxylic acid derivatives” (Pfizer Inc., priority 2004, dated 2010).

What is called melting point is the temperature of the solid-liquid transition. Turning to `CC(C)n1c(=O)n(C(=O)NCC2CCN(CC3(C(=O)O)CCOCC3)CC2)c2ccccc21` [Example 1, 4-{[4-({[(3-isopropyl-2-oxo-2,3-dihydro-1H-benzimidazol-1-yl)carbonyl]amino}methyl)piperidin-1-yl]methyl}tetrahydro-2H-pyran-4-carboxylic acid], the melting point came out at 223 °C.
